Assay results: patent publication US20080081825A1, “Nitrogen-Containing Heterocyclic Compounds and Medicinal Use Thereof” (priority 2004, published 2008)

Legend:
[1] = biological target: recombinant human p38α MAP kinase (Homo sapiens, UniProt Q16539); experiment: Study on p38α MAP kinase inhibitory activity (ATF-2 phosphorylation, Alpha Screen); type: biochemical; settings: ATF2 substrate, ATP 90 μmol/L
Experimental: Using activation transcription factor-2 (hereinafter abbreviated as ATF-2) which is a substrate for p38α MAP kinase, the inhibitory action of the compounds of the present invention was investigated on the phosphorylation by a recombinant human p38α MAP kinase.
A kinase buffer (25 mM Tris-HCl (pH 7.5), 5 mM […], 2 mM dithiothreitol, 0.1 mM Na3VO4, 10 mM MgCl2) containing a recombinant human p38α MAP kinase was added to a 384-well plate (5 μL) (6.25 ng protein/well) for fluorescence measurement. After addition of a kinase buffer (5 μL) containing the compound of the present invention, the resulting mixture was incubated at room temperature for 20 minutes. A substrate mixture (5 μL) of biotinylated ATF2 of 5 μg/mL (Upstate Biotechnology #14-432), adenosine triphosphate (90 μmol/L) (Sigma #FL-AAS) and anti-phosphorylated ATF2 antibody (20-fold dilution) (Cell Signaling Technology #9221L) prepared separately was added thereto, and enzyme reaction was carried out at 30° C. for 30 minutes. After the reaction, Hepes buffer (5 μL) containing 0.25% BSA and 100 mM EDTA was added to stop the enzyme reaction. The amount of a complex of the phosphorylated ATF2 and anti-phosphorylated ATF2 antibody produced by the reaction was measured using an Alpha Screenm Rabbit Detection kit (Packard #6760607).
The p38α MAP kinase inhibitory activity, which is the effect of the compound of the present invention, was calculated as an inhibition rate (%) according to the following equation:
(§1) Inhibition rate (%)={(AC−AX)/(AC−AB)}×100
Inhibition rate of compounds with each concentration was calculated, and a value indicating 50% inhibition (IC50) was determined from the inhibition curve.

[2] = test system: TNF-α production induced by lipopolysaccharide (LPS); experiment: Rat cytokine-production model (LPS-induced TNF-α in plasma); type: in vivo; settings: dose of 3 mg/kg orally, LPS 10 μg/kg intravenously after 2 hours, plasma 90 minutes after LPS
Experimental: The in vivo effect of the compound of the present invention was studied on TNF-α production induced by lipopolysaccharide (LPS) in rats.
A vehicle containing the compound of the present invention was orally administered to male Lew […] (Charles River Japan, Inc.), and after 2 hours, lipopolysaccharide (LPS, 055:B5, Difco) was intravenously administered at the dose of 10 μg/kg (5 animals/group). Only a vehicle was orally administered to a control group (5 animals). Ninety minutes after the LPS treatment, heparinized blood collection was performed via the abdominal cava vein under anesthesia with ether, and blood plasma was obtained by centrifugation (12,000 rpm, 3 minutes, 4° C.). The obtained blood plasma sample was stored at −80° C. until it was used. TNF-α in the blood plasma was measured using an ELISA kit from Genzyme/Techne (#10516).
The inhibitory activity of the compound of the present invention against TNF-α production was calculated as an inhibition rate (%) according to the following equation:
Inhibition rate (%)={(AC−AX)/A^C}×100

[3] = test system: TNF-α production, THP-1 human monocyte cell line; experiment: Inhibitory activity against TNF-α production using human cell lines (LPS-stimulated THP-1); type: cell-based; settings: 1.5 h, THP-1 cells, LPS stimulation, 90 minutes
Experimental: Using THP-1 which is a human monocyte cell line, the inhibitory effect of the compound of the present invention against TNF-α production stimulated by lipopolysaccharide (LPS) was studied.
Each 50 μL of lipopolysaccharide (LPS; Difco #3120-25-0) prepared to a concentration of 40 ng/mL using RPMI-1640 medium containing 10% fetal calf serum (hereinafter abbreviated to RPMI-1640) and RPMI-1640 containing the compound of the present invention was added to a 96-well plate for cell culture. One hundred μL of the cell suspension of THP-1 (Dainippon Pharmaceutical Co., Ltd, #06-202) prepared to a cell density of 2×10^6 cells/mL using RPMI-1640 was added and cultured for 90 minutes at 37° C. in an incubator (5% CO2, 95% air). After completion of the reaction, the culture medium supernatant was recovered and the amount of produced TNF-α was measured using an ELISA kit (Invitrogen, #850090192).
The inhibitory activity against TNF-α production, which is the effect of the compound of the present invention, was calculated as an inhibition rate (%) by the following equation:
as §1
AX is a measured value with LPS induction in the presence of a test compound. Inhibition rate of compounds with each concentration was calculated, and a value indicating 50% inhibition (IC50) was determined from the inhibition curve.

Sequence of recombinant human p38α MAP kinase (Q16539 whole entry): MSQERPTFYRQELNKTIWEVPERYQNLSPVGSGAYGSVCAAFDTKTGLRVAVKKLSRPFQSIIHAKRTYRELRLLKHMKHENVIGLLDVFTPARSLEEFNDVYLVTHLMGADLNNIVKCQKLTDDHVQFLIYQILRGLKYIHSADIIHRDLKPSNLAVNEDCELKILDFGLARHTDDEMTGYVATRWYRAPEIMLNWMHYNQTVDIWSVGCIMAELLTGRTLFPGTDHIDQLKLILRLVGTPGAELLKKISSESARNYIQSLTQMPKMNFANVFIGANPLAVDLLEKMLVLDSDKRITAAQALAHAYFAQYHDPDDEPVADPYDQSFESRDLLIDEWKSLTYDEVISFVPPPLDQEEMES

Question: O=c1ccc(C(=NO)c2ccc(F)cc2F)cn1-c1c(Cl)cccc1Cl [Example 7, 1-(2,6-dichlorophenyl)-5-[(2,4-difluorophenyl)(hydroxyimino)methyl]pyridin-2(1H)-one] was tested. Which IC50 [1] did it give?
Answer: 4.9 nM

Question: How did the “inhibition against in vivo TNF-α production induced by LPS stimulation” value [2] turn out when Cc1cc(F)cc(C)c1-n1cc(/C(=N/OC2CCN(C)CC2)c2ccc(F)cc2F)ccc1=O [Example 48, 5-((Z)-(2,4-difluorophenyl) {[(1-methyl-4-piperidinyl)oxy]iimino}methyl)-1-(4-fluoro-2,6-dimethylphenyl)-2(1H)-pyridinone] was run?
Answer: 72%

Question: What about the IC50 [1] of the same compound?
Answer: 34 nM

Question: What about the IC50 [3] of the same compound?
Answer: 2.4 nM

Question: Which “inhibition against in vivo TNF-α production induced by LPS stimulation” value [2] does the source give for Cc1cc(C)c(-n2cc(C(=NOC3CCN(C)CC3)c3ccc(F)cc3F)ccc2=O)c(C)c1 [Example 52(9), 5-((2,4-difluorophenyl){[(1-methyl-4-piperidinyl)oxy]imino}methyl)-1-mesityl-2(1H)-pyridinone] here?
Answer: 72%

Question: And the IC50 [1]?
Answer: 20.5 nM

Question: What about the IC50 [3] of the same compound?
Answer: 7.1 nM
